Here are results for 15 molecules from US20250179066A1, “ZWITTERIONIC ANTIBACTERIAL COMPOUNDS” (Hoffmann-La Roche Inc., priority 2022, published 2025).

The subject of the assay is Acinetobacter baumannii ATCC17961. Kind of assay: Antimicrobial susceptibility testing: 90% growth inhibitory concentration (IC90) determination. The following applies: Acinetobacter baumannii, ATCC17961, 16 h, 90% growth inhibitory concentration against Acinetobacter baumannii ATCC17961, Iso-Sensitest broth, OD 600 nm over 16 h; read-out: ATCC 17961 IC90. It counts as cell-based. The gist of the method:
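OD600 monitored each minute over 16 h at 35±2° C for bacteria (~5×10^5 CFU/mL final) in Iso-Sensitest medium with 10-point twofold compound series (e.g. 10-0.0195 μM final). Concentration giving 90% growth inhibition in log phase reported as IC90.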
By IC90 is commonly meant the point of the concentration-response curve where the effect stands at 90%. Take `Cc1cc(NC(=O)c2ncc(-c3cn(-c4ccc(N)cc4F)nc3C(F)(F)F)n2C)ccc1C(=O)N1CCN(C(=O)[C@H]2CC[N@+](CC(=O)O)(CC3CNC3)CC2)CC1` [Example 152, cis-2-[4-[4-[4-[[5-[1-(4-amino-2-fluoro-phenyl)-3-(trifluoromethyl)pyrazol-4-yl]-1-methyl-imidazole-2-carbonyl]amino]-2-methyl-benzoyl]piperazine-1-carbonyl]-1-(azetidin-3-ylmethyl)piperidin-1-ium-1-yl]acetic acid. 1:1 2,2,2-trifluoroacetate]: the IC90 worked out at 421 nM.

Consider `Cc1cc(NC(=O)c2ncc(-c3cn(-c4ccc5[nH]c(CO)cc5n4)nc3C(F)(F)F)n2C)ccc1C(=O)N1CCN(C(=O)[C@H]2CC[N@+](CC(=O)O)(CC3CNC3)CC2)CC1` [Example 153, cis-2-[1-(azetidin-3-ylmethyl)-4-[4-[2-methyl-4-[[1-methyl-5-[1-(2-methylol-1H-pyrrolo[3,2-b]pyridin-5-yl)-3-(trifluoromethyl)pyrazol-4-yl]imidazole-2-carbonyl]amino]benzoyl]piperazine-1-carbonyl]piperidin-1-ium-1-yl]acetic acid. 1:1 2,2,2-trifluoroacetate], for which the IC90 was determined as 384 nM.

For the molecule `Cn1c(-c2cn(-c3cc4[nH]c(CCO)cc4cn3)nc2C(F)(F)F)cnc1C(=O)Nc1ccc(C(=O)N2CCN(C(=O)[C@H]3CC[N@+](CC(=O)O)(CC4CNC4)CC3)CC2)c(Cl)c1` [Example 154, cis-2-[1-(azetidin-3-ylmethyl)-4-[4-[2-chloro-4-[[5-[1-[2-(2-hydroxyethyl)-1H-pyrrolo[3,2-c]pyridin-6-yl]-3-(trifluoromethyl)pyrazol-4-yl]-1-methyl-imidazole-2-carbonyl]amino]benzoyl]piperazine-1-carbonyl]piperidin-1-ium-1-yl]acetic acid;formate], the IC90 was found to be 172 nM.

As to `Cn1c(-c2cn(-c3cc4[nH]cc(C(=O)N5CC[C@H](O)C5)c4cn3)nc2C(F)(F)F)cnc1C(=O)Nc1ccc(C(=O)N2CCN(C(=O)[C@H]3CC[N@+](CC(=O)O)(CC4CNC4)CC3)CC2)c(Cl)c1` [Example 155, cis-2-[1-(azetidin-3-ylmethyl)-4-[4-[2-chloro-4-[[5-[1-[3-[(3S)-3-hydroxypyrrolidine-1-carbonyl]-1H-pyrrolo[3,2-c]pyridin-6-yl]-3-(trifluoromethyl)pyrazol-4-yl]-1-methyl-imidazole-2-carbonyl]amino]benzoyl]piperazine-1-carbonyl]piperidin-1-ium-1-yl]acetic acid. 1:1 2,2,2-trifluoroacetate], the IC90 is 329 nM.

For the molecule `CNC(=O)c1c[nH]c2cc(-n3cc(-c4cnc(C(=O)Nc5ccc(C(=O)N6CCN(C(=O)[C@H]7CC[N@+](CC(=O)O)(CC8CNC8)CC7)CC6)c(Cl)c5)n4C)c(C(F)(F)F)n3)ncc12` [Example 156, cis-2-[1-(azetidin-3-ylmethyl)-4-[4-[2-chloro-4-[[1-methyl-5-[1-[3-(methylcarbamoyl)-1H-pyrrolo[3,2-c]pyridin-6-yl]-3-(trifluoromethyl)pyrazol-4-yl]imidazole-2-carbonyl]amino]benzoyl]piperazine-1-carbonyl]piperidin-1-ium-1-yl]acetic acid. 1:1 2,2,2-trifluoroacetate], the IC90 worked out at 156 nM.

With `Cn1c(-c2cn(-c3cc4[nH]cc(C(N)=O)c4cn3)nc2C(F)(F)F)cnc1C(=O)Nc1ccc(C(=O)N2CCN(C(=O)[C@H]3CC[N@+](CC(=O)O)(CC4CNC4)CC3)CC2)c(Cl)c1` [Example 157, cis-2-[1-(azetidin-3-ylmethyl)-4-[4-[4-[[5-[1-(3-carbamoyl-1H-pyrrolo[3,2-c]pyridin-6-yl)-3-(trifluoromethyl)pyrazol-4-yl]-1-methyl-imidazole-2-carbonyl]amino]-2-chloro-benzoyl]piperazine-1-carbonyl]piperidin-1-ium-1-yl]acetic acid. 1:1 2,2,2-trifluoroacetate], the IC90 came to 368 nM.

For `CN(C)S(=O)(=O)n1c(CCO)cc2cnc(-n3cc(-c4cnc(C(=O)Nc5ccc(C(=O)N6CCN(C(=O)[C@H]7CC[N@+](CC(=O)O)(CC8CNC8)CC7)CC6)c(Cl)c5)n4C)c(C(F)(F)F)n3)cc21` [Example 158, cis-2-[1-(azetidin-3-ylmethyl)-4-[4-[2-chloro-4-[[5-[1-[1-(dimethylsulfamoyl)-2-(2-hydroxyethyl)pyrrolo[3,2-c]pyridin-6-yl]-3-(trifluoromethyl)pyrazol-4-yl]-1-methyl-imidazole-2-carbonyl]amino]benzoyl]piperazine-1-carbonyl]piperidin-1-ium-1-yl]acetic acid;formate], the IC90 was 783 nM.

Take `Cn1c(-c2cn(-c3ccc(N)cc3F)nc2C(F)(F)F)cnc1C(=O)Nc1ccc(C(=O)N2CCN(C(=O)C3CC[N+](CCCO)(CC(=O)O)CC3)CC2)c(Cl)c1` (stereo not drawn) [Example 159, 2-[4-[4-[4-[[5-[1-(4-amino-2-fluoro-phenyl)-3-(trifluoromethyl)pyrazol-4-yl]-1-methyl-imidazole-2-carbonyl]amino]-2-chloro-benzoyl]piperazine-1-carbonyl]-1-(3-hydroxypropyl)piperidin-1-ium-1-yl]acetic acid. 1:1 2,2,2-trifluoroacetate]: the IC90 was 647 nM.

As to `Cn1c(-c2cn(-c3ccc4[nH]c(C[C@H](O)CO)cc4n3)nc2C(F)(F)F)cnc1C(=O)Nc1ccc(C(=O)N2CCN(C(=O)[C@H]3CC[N@+](CC(=O)O)(CC4CNC4)CC3)CC2)c(Cl)c1` [Example 160, cis-2-[1-(azetidin-3-ylmethyl)-4-[4-[2-chloro-4-[[5-[1-[2-[(2S)-2,3-dihydroxypropyl]-1H-pyrrolo[3,2-b]pyridin-5-yl]-3-(trifluoromethyl)pyrazol-4-yl]-1-methyl-imidazole-2-carbonyl]amino]benzoyl]piperazine-1-carbonyl]piperidin-1-ium-1-yl]acetic acid;formate], the IC90 came out at 474 nM.

In the case of `CC(Cn1ccc2nc(-n3cc(-c4cnc(C(=O)Nc5ccc(C(=O)N6CCN(C(=O)[C@H]7CC[N@+](CC(=O)O)(CC8CNC8)CC7)CC6)c(Cl)c5)n4C)c(C(F)(F)F)n3)ccc21)C(N)=O` (stereo partly drawn) [Example 161, 2-[4-[4-[4-[[5-[1-[1-(3-amino-2-methyl-3-oxo-propyl)pyrrolo[3,2-b]pyridin-5-yl]-3-(trifluoromethyl)pyrazol-4-yl]-1-methyl-imidazole-2-carbonyl]amino]-2-chloro-benzoyl]piperazine-1-carbonyl]-1-(azetidin-3-ylmethyl)piperidin-1-ium-1-yl]acetic acid;2,2,2-trifluoroacetate], the IC90 is 390 nM.

Regarding `Cn1c(-c2cn(-c3ccc4[nH]c(CCO)cc4n3)nc2C(F)(F)F)cnc1C(=O)Nc1ccc(C(=O)N2CCN(C(=O)[C@H]3CC[N@+](CC(=O)O)(CC4CNC4)CC3)CC2)c(Cl)c1` [Example 162, cis-2-[1-(azetidin-3-ylmethyl)-4-[4-[2-chloro-4-[[5-[1-[2-(2-hydroxyethyl)-1H-pyrrolo[3,2-b]pyridin-5-yl]-3-(trifluoromethyl)pyrazol-4-yl]-1-methyl-imidazole-2-carbonyl]amino]benzoyl]piperazine-1-carbonyl]piperidin-1-ium-1-yl]acetic acid;formate], the concentration for an effect of 90% (IC90) was 203 nM.

For `Cn1c(-c2cn(-c3ccc(O)cc3F)nc2C(F)(F)F)cnc1C(=O)Nc1ccc(C(=O)N2CCN(C(=O)[C@H]3CC[N@+](CC(=O)O)(CC4CNC4)CC3)CC2)c(Cl)c1` [Example 163, cis-2-[1-(azetidin-3-ylmethyl)-4-[4-[2-chloro-4-[[5-[1-(2-fluoro-4-hydroxy-phenyl)-3-(trifluoromethyl)pyrazol-4-yl]-1-methyl-imidazole-3-carbonyl]amino]benzoyl]piperazine-1-carbonyl]piperidin-1-ium-1-yl]acetic acid. 1:1 2,2,2-trifluoroacetate], the 90% effect concentration (IC90) is 190 nM.

`Cn1c(-c2cn(-c3ccc(NCC(C)(C)O)cc3F)nc2C(F)(F)F)cnc1C(=O)Nc1ccc(C(=O)N2CCN(C(=O)[C@H]3CC[N@+](CC(=O)O)(CC4CNC4)CC3)CC2)c(Cl)c1` [Example 164, cis-2-[1-(azetidin-3-ylmethyl)-4-[4-[2-chloro-4-[[5-[1-[2-fluoro-4-[(2-hydroxy-2-methyl-propyl)amino]phenyl]-3-(trifluoromethyl)pyrazol-4-yl]-1-methyl-imidazole-2-carbonyl]amino]benzoyl]piperazine-1-carbonyl]piperidin-1-ium-1-yl]acetic acid;formate]: the IC90 worked out at 163 nM.

With `Cn1c(-c2cn(-c3ncc4[nH]ccc4n3)nc2C(F)(F)F)cnc1C(=O)Nc1ccc(C(=O)N2CCN(C(=O)[C@H]3CC[N@+](CC(=O)O)(CC4CNC4)CC3)CC2)c(Cl)c1` [Example 165, cis-2-[1-(azetidin-3-ylmethyl)-4-[4-[2-chloro-4-[[1-methyl-5-[1-(5H-pyrrolo[3,2-d]pyrimidin-2-yl)-3-(trifluoromethyl)pyrazol-4-yl]imidazole-2-carbonyl]amino]benzoyl]piperazine-1-carbonyl]piperidin-1-ium-1-yl]acetic acid;formate], the IC90 worked out at 649 nM.

With `Cn1c(-c2cn(-c3ccc(NCCN(CCN)CCN)cn3)nc2C(F)(F)F)cnc1C(=O)Nc1ccc(C(=O)N2CCN(C(=O)C3CC[N+](CC(=O)O)(CC4CNC4)CC3)CC2)c(Cl)c1` (stereo not drawn) [Example 166, cis-2-[1-(azetidin-3-ylmethyl)-4-[4-[4-[[5-[1-[5-[2-[bis(2-aminoethyl)amino]ethylamino]-2-pyridyl]-3-(trifluoromethyl)pyrazol-4-yl]-1-methyl-imidazole-2-carbonyl]amino]-2-chloro-benzoyl]piperazine-1-carbonyl]piperidin-1-ium-1-yl]acetic acid;formic acid;formate], the 90% effect concentration (IC90) was 152 nM.
